Assay results reported in ChEMBL document CHEMBL5465560, “Selectivity Literature for EUbOPEN Chemogenomic Library” (2024).

Experiments:
[1] = target: T1, Hormonally up-regulated neu tumor-associated kinase (Homo sapiens) (UniProt P57058); test: Selectivity interaction (KinomeScan (DiscoverX)) EUB0000229b HUNK; conditions: at 10 µM
T1 sequence (whole entry): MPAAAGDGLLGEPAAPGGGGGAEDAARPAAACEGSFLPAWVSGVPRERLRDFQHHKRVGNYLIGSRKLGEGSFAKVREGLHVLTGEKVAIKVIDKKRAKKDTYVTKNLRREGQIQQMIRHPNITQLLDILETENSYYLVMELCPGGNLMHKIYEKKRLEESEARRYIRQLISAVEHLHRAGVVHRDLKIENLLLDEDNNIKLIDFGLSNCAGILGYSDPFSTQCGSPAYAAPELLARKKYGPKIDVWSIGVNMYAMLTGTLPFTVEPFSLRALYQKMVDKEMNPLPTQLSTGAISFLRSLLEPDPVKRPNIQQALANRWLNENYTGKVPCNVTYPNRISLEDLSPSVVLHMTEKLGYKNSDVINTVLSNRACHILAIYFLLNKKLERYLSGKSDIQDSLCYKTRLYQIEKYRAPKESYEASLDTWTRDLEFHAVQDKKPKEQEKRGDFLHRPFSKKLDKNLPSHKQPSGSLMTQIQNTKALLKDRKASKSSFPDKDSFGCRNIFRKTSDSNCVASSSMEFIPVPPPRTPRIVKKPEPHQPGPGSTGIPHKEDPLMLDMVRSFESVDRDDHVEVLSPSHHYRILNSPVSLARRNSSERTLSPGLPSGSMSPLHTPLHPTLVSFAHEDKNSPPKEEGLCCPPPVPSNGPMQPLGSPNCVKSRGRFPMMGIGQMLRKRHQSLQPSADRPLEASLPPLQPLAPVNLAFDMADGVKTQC

[2] = target: T2, Tyrosine-protein kinase Mer (Homo sapiens) (UniProt Q12866); test: Selectivity interaction (KinomeScan (DiscoverX)) EUB0000666a MERTK; conditions: at 10 µM
T2 sequence (whole entry): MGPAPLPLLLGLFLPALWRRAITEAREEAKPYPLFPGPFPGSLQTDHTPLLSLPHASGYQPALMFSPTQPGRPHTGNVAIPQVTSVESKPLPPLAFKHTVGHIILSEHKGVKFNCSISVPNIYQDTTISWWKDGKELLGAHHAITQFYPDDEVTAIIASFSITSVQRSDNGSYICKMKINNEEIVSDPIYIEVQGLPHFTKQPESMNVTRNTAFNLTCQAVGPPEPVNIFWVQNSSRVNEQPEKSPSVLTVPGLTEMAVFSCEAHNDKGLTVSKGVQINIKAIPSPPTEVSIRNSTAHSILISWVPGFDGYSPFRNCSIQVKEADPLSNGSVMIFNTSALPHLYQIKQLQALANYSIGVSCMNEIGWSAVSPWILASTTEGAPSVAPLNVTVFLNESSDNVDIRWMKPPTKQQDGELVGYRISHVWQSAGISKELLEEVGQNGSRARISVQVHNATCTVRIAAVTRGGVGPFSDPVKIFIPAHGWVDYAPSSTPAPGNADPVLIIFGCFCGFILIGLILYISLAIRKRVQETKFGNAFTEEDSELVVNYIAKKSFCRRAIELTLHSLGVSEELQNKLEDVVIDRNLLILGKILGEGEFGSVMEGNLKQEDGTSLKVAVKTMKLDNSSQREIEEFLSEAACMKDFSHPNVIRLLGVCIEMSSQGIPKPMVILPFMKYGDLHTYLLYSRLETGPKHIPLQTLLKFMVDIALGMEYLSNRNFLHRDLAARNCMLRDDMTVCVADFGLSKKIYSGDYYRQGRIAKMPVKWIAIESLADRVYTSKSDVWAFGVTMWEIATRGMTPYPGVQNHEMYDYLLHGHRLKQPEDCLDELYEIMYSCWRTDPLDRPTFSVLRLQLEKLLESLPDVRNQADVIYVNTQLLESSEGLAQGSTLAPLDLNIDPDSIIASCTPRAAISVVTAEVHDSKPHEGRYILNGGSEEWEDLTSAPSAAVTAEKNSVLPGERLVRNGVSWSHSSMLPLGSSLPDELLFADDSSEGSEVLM

[3] = target: Serine/threonine-protein kinase MRCK alpha (Homo sapiens) (UniProt Q5VT25); test: Selectivity interaction (KinomeScan (DiscoverX)) EUB0000607a CDC42BPA; conditions: at 10 µM
[4] = target: T3, Cyclin-dependent kinase 11A (Homo sapiens) (UniProt Q9UQ88); test: Selectivity interaction (Ambit KINOMEscan and KiNATiv profiling in Jurkat cells) EUB0000090b CDK11A; type: cell-based; conditions: at 1 µM
T3 sequence (whole entry): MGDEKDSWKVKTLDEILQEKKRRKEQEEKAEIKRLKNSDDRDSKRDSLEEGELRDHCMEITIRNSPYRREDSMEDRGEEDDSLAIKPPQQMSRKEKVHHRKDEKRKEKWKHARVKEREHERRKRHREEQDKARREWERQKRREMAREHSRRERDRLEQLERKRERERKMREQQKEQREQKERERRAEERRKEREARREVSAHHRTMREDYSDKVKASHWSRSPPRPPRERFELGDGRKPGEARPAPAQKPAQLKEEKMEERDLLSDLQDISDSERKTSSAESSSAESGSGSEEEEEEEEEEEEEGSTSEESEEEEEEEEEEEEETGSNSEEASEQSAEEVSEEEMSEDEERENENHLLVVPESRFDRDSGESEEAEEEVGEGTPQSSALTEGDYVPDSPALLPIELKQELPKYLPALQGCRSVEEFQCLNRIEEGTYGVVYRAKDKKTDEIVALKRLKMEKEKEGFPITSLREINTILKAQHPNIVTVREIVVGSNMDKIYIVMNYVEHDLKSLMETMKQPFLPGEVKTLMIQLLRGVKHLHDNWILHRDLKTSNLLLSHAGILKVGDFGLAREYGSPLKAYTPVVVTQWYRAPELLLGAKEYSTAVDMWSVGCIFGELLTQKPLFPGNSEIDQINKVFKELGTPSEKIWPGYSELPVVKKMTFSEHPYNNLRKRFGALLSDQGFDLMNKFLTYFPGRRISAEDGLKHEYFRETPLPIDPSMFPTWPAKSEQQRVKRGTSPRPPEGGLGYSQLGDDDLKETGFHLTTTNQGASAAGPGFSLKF

Chain of Serine/threonine-protein kinase MRCK alpha (Homo sapiens) (Q5VT25 whole entry): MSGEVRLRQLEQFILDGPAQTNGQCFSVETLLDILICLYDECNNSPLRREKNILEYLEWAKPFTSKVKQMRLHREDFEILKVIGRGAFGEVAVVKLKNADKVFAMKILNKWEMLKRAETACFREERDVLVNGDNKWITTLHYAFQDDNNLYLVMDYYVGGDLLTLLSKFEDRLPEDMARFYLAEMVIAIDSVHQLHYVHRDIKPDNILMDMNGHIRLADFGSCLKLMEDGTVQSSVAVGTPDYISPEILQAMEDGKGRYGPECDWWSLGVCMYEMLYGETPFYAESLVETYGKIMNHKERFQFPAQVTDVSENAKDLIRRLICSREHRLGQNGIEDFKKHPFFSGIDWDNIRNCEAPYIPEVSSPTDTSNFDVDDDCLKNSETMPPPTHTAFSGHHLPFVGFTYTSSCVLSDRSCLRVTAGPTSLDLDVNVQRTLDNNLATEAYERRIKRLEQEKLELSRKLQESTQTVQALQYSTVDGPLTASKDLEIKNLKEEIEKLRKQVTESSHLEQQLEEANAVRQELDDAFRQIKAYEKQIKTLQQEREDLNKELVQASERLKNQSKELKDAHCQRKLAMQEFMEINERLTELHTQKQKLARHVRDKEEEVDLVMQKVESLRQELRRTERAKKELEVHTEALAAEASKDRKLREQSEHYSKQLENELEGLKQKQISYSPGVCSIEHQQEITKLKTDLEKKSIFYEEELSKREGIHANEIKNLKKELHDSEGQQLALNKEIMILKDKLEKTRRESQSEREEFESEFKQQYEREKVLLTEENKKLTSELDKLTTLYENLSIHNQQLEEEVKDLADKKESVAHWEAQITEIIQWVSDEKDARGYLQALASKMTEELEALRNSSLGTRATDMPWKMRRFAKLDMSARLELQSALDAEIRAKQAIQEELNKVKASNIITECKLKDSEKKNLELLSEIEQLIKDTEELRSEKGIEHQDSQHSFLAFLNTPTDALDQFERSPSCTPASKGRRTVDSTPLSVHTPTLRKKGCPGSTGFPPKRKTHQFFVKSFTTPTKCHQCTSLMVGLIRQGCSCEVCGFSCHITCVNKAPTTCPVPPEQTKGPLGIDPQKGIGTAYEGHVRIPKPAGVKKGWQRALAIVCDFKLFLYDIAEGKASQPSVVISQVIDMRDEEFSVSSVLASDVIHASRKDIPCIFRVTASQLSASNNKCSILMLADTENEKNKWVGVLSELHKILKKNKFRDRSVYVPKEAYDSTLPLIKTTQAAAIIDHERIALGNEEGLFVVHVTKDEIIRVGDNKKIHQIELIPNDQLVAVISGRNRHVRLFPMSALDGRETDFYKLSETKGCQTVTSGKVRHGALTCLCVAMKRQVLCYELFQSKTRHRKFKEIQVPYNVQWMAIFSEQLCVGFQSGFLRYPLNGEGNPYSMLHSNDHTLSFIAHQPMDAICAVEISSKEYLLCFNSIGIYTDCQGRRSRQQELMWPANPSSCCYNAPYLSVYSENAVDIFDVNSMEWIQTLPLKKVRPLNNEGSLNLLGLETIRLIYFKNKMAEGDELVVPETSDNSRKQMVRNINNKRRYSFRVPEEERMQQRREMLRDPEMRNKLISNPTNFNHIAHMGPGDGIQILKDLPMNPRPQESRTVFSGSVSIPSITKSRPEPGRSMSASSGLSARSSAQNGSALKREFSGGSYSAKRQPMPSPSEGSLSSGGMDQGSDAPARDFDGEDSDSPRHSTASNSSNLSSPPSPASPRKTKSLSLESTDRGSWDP

## COc1cc(N(C)c2ccnc3ccc(C(F)(F)F)cc23)cc(OC)c1OC
[1]
  % binding: 93%

## O=C(NOC[C@H](O)CO)c1ccc(F)c(F)c1Nc1ccc(I)cc1F
[2]
  % of control: 100%

## CNC(=O)Nc1ccc(-c2nc(N3CC4CCC(C3)O4)c3cnn(C4CCC5(CC4)OCCO5)c3n2)cc1
[3]
  % of control: 100%

## CN(C)C/C=C/C(=O)Nc1ccc(C(=O)N2CCCC(Nc3ncc(Cl)c(-c4c[nH]c5ccccc45)n3)C2)cc1 (centres undefined)
[4]
  % of control: 100%
